Measured values: publication PMC10976219, “Purification and Biochemical Characterization of Polyphenol Oxidase Extracted from Wheat Bran (Wan grano)” (Molecules, 2024)

System: T1, wheat PPO (purified wheat bran polyphenol oxidase)
T1 construct: gene PPO-A1; native, purified from wheat bran (ammonium sulfate, DEAE-Sepharose, Superdex G-75); approx. 21 kDa on SDS-PAGE, dual bands 21 and 17 kDa
Test: spectrophotometric oxidation assay at […] nm, Lineweaver-Burk
Assay type: biochemical, Triticum aestivum
Conditions: 50 mM phosphate pH 6.5, 35 °C, 2-10 mM substrate

| Km [mM] | SMILES |
| --- | --- |
| 7.37 ± 0.71 | Oc1cccc(O)c1O [pyrogallic acid] |
| 9.05 ± 0.18 | Oc1cc(O)c2c(c1)O[C@H](c1cc(O)c(O)c(O)c1)[C@H](O)C2 [epigallocatechin] |
| 8.01 ± 0.46 | Oc1cc(O)c2c(c1)O[C@H](c1ccc(O)c(O)c1)[C@H](O)C2 [epicatechin] |
| 7.9 ± 0.64 | O=C(O[C@@H]1Cc2c(O)cc(O)cc2O[C@@H]1c1ccc(O)c(O)c1)c1cc(O)c(O)c(O)c1 [epicatechin gallate] |

| SMILES | Km [mM] |
| --- | --- |
| O=C(O)c1cc(O)c(O)c(O)c1 [gallic acid] | 7.05 ± 0.47 |
| Oc1ccccc1O [catechol] | 6.36 ± 0.71 |
| O=C(O[C@@H]1Cc2c(O)cc(O)cc2O[C@@H]1c1cc(O)c(O)c(O)c1)c1cc(O)c(O)c(O)c1 [epigallocatechin gallate] | 7.7 ± 0.14 |
